According to the supplement of paper PMC11451515:

Legend:
Conditions in all cases: 48 h
P12-Ichikawa [1] = test: cell viability relative to DMSO control; higher = less cytotoxic
How it was run: (§1)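 NOMO1, SEM and P12-Ichikawa leukemia cells spent at least four passages adapting to each medium before use. They were seeded at 500 cells/well (NOMO1, SEM) or 1000 cells/well (P12-Ichikawa) in 5 μl in 1536-well plates and pin-dosed with library compounds in DMSO at 11 threefold steps from 47 μM down to 0.79 nM. After 48 h at 37°C, CellTiter-Glo One luminescence was read. Viability is reported as a percentage of the DMSO wells on each plate, with cell-free wells as background.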

NOMO1 [2] = test: as above
How it was run: as §1

SEM cells [3] = test: as above
How it was run: as §1

P12-Ichikawa [4] = test: AUC of viability dose-response curve (% viability x log10 dose units); higher = less sensitive
How it was run: (§2)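 Viability of medium-adapted leukemia cells was measured by CellTiter-Glo One luminescence after 48 h at 37°C with library compounds in DMSO. Doses were 11 threefold steps from 47 μM to 0.79 nM, in 1536-well plates at 500 or 1000 cells/well. Signals were normalised per plate to DMSO and cell-free wells and fitted with a four-parameter log-logistic model on log10 dose. Area under the curve was integrated by trapezoidal rule, with curves exceeding full viability scaled and failed quality-control curves removed.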

NOMO1 [5] = test: as above
How it was run: as §2

SEM cells [6] = test: as above
How it was run: as §2

[7] = HPLM + 10% dialyzed FBS, 0.000781 µM
[8] = HPLM + 10% dialyzed FBS, 0.00234 µM
[9] = HPLM + 10% dialyzed FBS, 0.00702 µM
[10] = HPLM + 10% dialyzed FBS, 0.0211 µM
[11] = HPLM + 10% dialyzed FBS, 0.0632 µM
[12] = HPLM + 10% dialyzed FBS, 0.19 µM
[13] = HPLM + 10% dialyzed FBS, 0.569 µM
[14] = HPLM + 10% dialyzed FBS, 1.71 µM
[15] = HPLM + 10% dialyzed FBS, 5.12 µM
[16] = HPLM + 10% dialyzed FBS, 15.4 µM
[17] = HPLM + 10% dialyzed FBS, 46.1 µM
[18] = RPMI 5 mM glucose + 10% FBS, 0.000781 µM
[19] = RPMI 5 mM glucose + 10% FBS, 0.00234 µM
[20] = RPMI 5 mM glucose + 10% FBS, 0.00702 µM
[21] = RPMI 5 mM glucose + 10% FBS, 0.0211 µM
[22] = RPMI 5 mM glucose + 10% FBS, 0.0632 µM
[23] = RPMI 5 mM glucose + 10% FBS, 0.19 µM
[24] = RPMI 5 mM glucose + 10% FBS, 0.569 µM
[25] = RPMI 5 mM glucose + 10% FBS, 1.71 µM
[26] = RPMI 5 mM glucose + 10% FBS, 5.12 µM
[27] = RPMI 5 mM glucose + 10% FBS, 15.4 µM
[28] = RPMI 5 mM glucose + 10% FBS, 46.1 µM
[29] = RPMI 5 mM glucose + 10% dialyzed FBS, 0.000781 µM
[30] = RPMI 5 mM glucose + 10% dialyzed FBS, 0.00234 µM
[31] = RPMI 5 mM glucose + 10% dialyzed FBS, 0.00702 µM
[32] = RPMI 5 mM glucose + 10% dialyzed FBS, 0.0211 µM
[33] = RPMI 5 mM glucose + 10% dialyzed FBS, 0.0632 µM
[34] = RPMI 5 mM glucose + 10% dialyzed FBS, 0.19 µM
[35] = RPMI 5 mM glucose + 10% dialyzed FBS, 0.569 µM
[36] = RPMI 5 mM glucose + 10% dialyzed FBS, 1.71 µM
[37] = RPMI 5 mM glucose + 10% dialyzed FBS, 5.12 µM
[38] = RPMI 5 mM glucose + 10% dialyzed FBS, 15.4 µM
[39] = RPMI 5 mM glucose + 10% dialyzed FBS, 46.1 µM
[40] = RPMI 5 mM glucose + 10% dialyzed FBS

`COc1cccc2c1C(=O)c1c(O)c3c(c(O)c1C2=O)C[C@@](O)(C(C)=O)C[C@@H]3O[C@H]1C[C@H](N)[C@H](O)[C@H](C)O1` showed a cell viability (P12-Ichikawa [1]; [7]) of 107%, a cell viability (P12-Ichikawa [1]; [8]) of 112% and a cell viability (P12-Ichikawa [1]; [9]) of 115%. For the same compound, the cell viability (P12-Ichikawa [1]; [10]) was 109%, the cell viability (P12-Ichikawa [1]; [11]) was 114% and the cell viability (P12-Ichikawa [1]; [12]) was 101%. It also gave a cell viability (P12-Ichikawa [1]; [13]) of 6.62%, a cell viability (P12-Ichikawa [1]; [14]) of 7.98% and a cell viability (P12-Ichikawa [1]; [15]) of 8.25%. For the same compound, the cell viability (P12-Ichikawa [1]; [16]) was 9.65%, the cell viability (P12-Ichikawa [1]; [17]) was 8.17% and the cell viability (P12-Ichikawa [1]; [18]) was 94.8%. For the same compound, the cell viability (P12-Ichikawa [1]; [19]) was 112%, the cell viability (P12-Ichikawa [1]; [20]) was 113% and the cell viability (P12-Ichikawa [1]; [21]) was 104%. It also gave a cell viability (P12-Ichikawa [1]; [22]) of 103%, a cell viability (P12-Ichikawa [1]; [23]) of 73.2% and a cell viability (P12-Ichikawa [1]; [24]) of 7.42%. It also gave a cell viability (P12-Ichikawa [1]; [25]) of 7.61%, a cell viability (P12-Ichikawa [1]; [26]) of 7.8% and a cell viability (P12-Ichikawa [1]; [27]) of 7.04%. It also gave a cell viability (P12-Ichikawa [1]; [28]) of 9.59%, a cell viability (P12-Ichikawa [1]; [29]) of 102% and a cell viability (P12-Ichikawa [1]; [30]) of 107%. It also gave a cell viability (P12-Ichikawa [1]; [31]) of 107%, a cell viability (P12-Ichikawa [1]; [32]) of 106% and a cell viability (P12-Ichikawa [1]; [33]) of 98%. For the same compound, the cell viability (P12-Ichikawa [1]; [34]) was 70.8%, the cell viability (P12-Ichikawa [1]; [35]) was 8.12% and the cell viability (P12-Ichikawa [1]; [36]) was 7.49%. It also gave a cell viability (P12-Ichikawa [1]; [37]) of 7.97%, a cell viability (P12-Ichikawa [1]; [38]) of 7.6% and a cell viability (P12-Ichikawa [1]; [39]) of 8.42%. The cell viability (NOMO1 [2]; [7]) was 98.6%, the cell viability (NOMO1 [2]; [8]) was 107% and the cell viability (NOMO1 [2]; [9]) was 108%. For the same compound, the cell viability (NOMO1 [2]; [10]) was 114%, the cell viability (NOMO1 [2]; [11]) was 111% and the cell viability (NOMO1 [2]; [12]) was 81.5%. The cell viability (NOMO1 [2]; [13]) was 12.4%, the cell viability (NOMO1 [2]; [14]) was 7.35% and the cell viability (NOMO1 [2]; [15]) was 5.97%. For the same compound, the cell viability (NOMO1 [2]; [16]) was 5.19%, the cell viability (NOMO1 [2]; [17]) was 4.98% and the cell viability (NOMO1 [2]; [18]) was 99%. The cell viability (NOMO1 [2]; [19]) was 104%, the cell viability (NOMO1 [2]; [20]) was 106% and the cell viability (NOMO1 [2]; [21]) was 99.2%. It also gave a cell viability (NOMO1 [2]; [22]) of 108%, a cell viability (NOMO1 [2]; [23]) of 78.6% and a cell viability (NOMO1 [2]; [24]) of 9.07%. The cell viability (NOMO1 [2]; [25]) was 4.79%, the cell viability (NOMO1 [2]; [26]) was 4.48% and the cell viability (NOMO1 [2]; [27]) was 5.23%. It also gave a cell viability (NOMO1 [2]; [28]) of 3.6%, a cell viability (NOMO1 [2]; [29]) of 91.6% and a cell viability (NOMO1 [2]; [30]) of 113%. It also gave a cell viability (NOMO1 [2]; [31]) of 107%, a cell viability (NOMO1 [2]; [32]) of 115% and a cell viability (NOMO1 [2]; [33]) of 108%. It also gave a cell viability (NOMO1 [2]; [34]) of 73.4%, a cell viability (NOMO1 [2]; [35]) of 9.73% and a cell viability (NOMO1 [2]; [36]) of 6.25%. The cell viability (NOMO1 [2]; [37]) was 4.58%, the cell viability (NOMO1 [2]; [38]) was 4.86% and the cell viability (NOMO1 [2]; [39]) was 4.92%. It also gave a cell viability (SEM cells [3]; [7]) of 74.5%, a cell viability (SEM cells [3]; [8]) of 83.9% and a cell viability (SEM cells [3]; [9]) of 85.3%. It also gave a cell viability (SEM cells [3]; [10]) of 90.3%, a cell viability (SEM cells [3]; [11]) of 55.3% and a cell viability (SEM cells [3]; [12]) of 25.3%. The cell viability (SEM cells [3]; [13]) was 7.3%, the cell viability (SEM cells [3]; [14]) was 7.11% and the cell viability (SEM cells [3]; [15]) was 6.71%. The cell viability (SEM cells [3]; [16]) was 7.18%, the cell viability (SEM cells [3]; [17]) was 5.34% and the cell viability (SEM cells [3]; [18]) was 82.3%. The cell viability (SEM cells [3]; [19]) was 98.4%, the cell viability (SEM cells [3]; [20]) was 91.9% and the cell viability (SEM cells [3]; [21]) was 77.3%. For the same compound, the cell viability (SEM cells [3]; [22]) was 40%, the cell viability (SEM cells [3]; [23]) was 21.8% and the cell viability (SEM cells [3]; [24]) was 7.4%. The cell viability (SEM cells [3]; [25]) was 7.93%, the cell viability (SEM cells [3]; [26]) was 7.89% and the cell viability (SEM cells [3]; [27]) was 7.75%. It also gave a cell viability (SEM cells [3]; [28]) of 6.05%, a cell viability (SEM cells [3]; [29]) of 88.6% and a cell viability (SEM cells [3]; [30]) of 89%. For the same compound, the cell viability (SEM cells [3]; [31]) was 96.2%, the cell viability (SEM cells [3]; [32]) was 84.3% and the cell viability (SEM cells [3]; [33]) was 59.2%. For the same compound, the cell viability (SEM cells [3]; [34]) was 29.4%, the cell viability (SEM cells [3]; [35]) was 9.48% and the cell viability (SEM cells [3]; [36]) was 8.29%. The cell viability (SEM cells [3]; [37]) was 8.52%, the cell viability (SEM cells [3]; [38]) was 8.22% and the cell viability (SEM cells [3]; [39]) was 6.01%. The “AUC of viability dose-response curve” value (P12-Ichikawa [4]; HPLM + 10% dialyzed FBS) was 274, the “AUC of viability dose-response curve” value (P12-Ichikawa [4]; RPMI 5 mM glucose + 10% FBS) was 264 and the “AUC of viability dose-response curve” value (P12-Ichikawa [4]; [40]) was 263. The “AUC of viability dose-response curve” value (NOMO1 [5]; HPLM + 10% dialyzed FBS) was 265, the “AUC of viability dose-response curve” value (NOMO1 [5]; RPMI 5 mM glucose + 10% FBS) was 262 and the “AUC of viability dose-response curve” value (NOMO1 [5]; [40]) was 259. For the same compound, the “AUC of viability dose-response curve” value (SEM cells [6]; HPLM + 10% dialyzed FBS) was 192, the “AUC of viability dose-response curve” value (SEM cells [6]; RPMI 5 mM glucose + 10% FBS) was 190 and the “AUC of viability dose-response curve” value (SEM cells [6]; [40]) was 209.
